Laboratory results as given in US20220259202A1, “1-(4-(AMINOMETHYL)BENZYL)-2-BUTYL-2H-PYRAZOLO[3,4-C]QUINOLIN-4-AMINE DERIVATIVES AND RELATED COMPOUNDS AS TOLL-LIKE RECEPTOR (TLR) 7/8 AGONISTS, AS WELL AS ANTIBODY DRUG CONJUGATES THEREOF FOR USE IN CANCER THERAPY AND DIAGNOSIS” (SUTRO BIOPHARMA, INC., priority 2019, published 2022).

Experiments:
[1] = test system: KB cells; experiment: In vitro cytotoxicity, cell proliferation assay (Cell Titer-Glo); assay type: cell-based; conditions: concentration up to 1 μM, 120 hrs
Description: The cytotoxicity of Compound 1 was tested in a cell proliferation assay on KB cells. KB cells were obtained from ATCC and were maintained in Ham's F-12: high glucose DMEM (50:50) (Corning) supplemented with 10% heat-inactivated fetal bovine serum (Corning), 1% Penicillin/Streptomycin (Corning) and 2 mmol/L-glutamax (Thermo Fisher Scientific). One day before the assay, KB cells were harvested with Accutase and a total of 625 cells were seeded in each well of a 384-well flat bottom white polystyrene plate. Compound 1 was formulated at 2-fold starting concentration in the cell culture medium. Serial dilutions of Compound 1 (1:4 serial dilution starting from 1000 nM) was added into treatment wells. Assay plates were cultured at 37° C. in a CO2 incubator for 120 hrs before assay. For cell viability measurement, 30 μL of Cell Titer-Glo® reagent (Promega Corp. Madison, Wis.) was added into each well, and plates were processed as per product instructions. Relative luminescence was measured on an ENVISION® plate reader (Perkin-Elmer; Waltham, Mass.). Relative luminescence readings were converted to percent viability using untreated cells as controls. Data was fitted with non-linear regression analysis, using a log(inhibitor) vs. response-variable slope, 4-parameter fit with GraphPad Prism (GraphPad v 5.0, Software; San Diego, California).

[2] = test system: human PBMCs; experiment: Compound-induced immune cell activation (CD86 expression, flow cytometry); assay type: cell-based; conditions: monocytes, B cells, cDCs and pDCs (FIG. 1A-1D); 48 hr
Excerpt: This example evaluates the ability of Compound 1 to stimulate the activation of different immune cells populations (monocyte, B cell, and DCs) in human PBMCs (Peripheral blood mononuclear cells), cyno PBMCs and mouse splenocytes. Compound A, above, and resiquimod, below, were used as controls in this assay
Peripheral blood mononuclear cells (PBMCs) were isolated from fresh collected blood from two healthy human donors and two cynomolgus monkey donors using Leukosep tube and Nycoprep 1.077 buffer according to the manufacture's recommendation. Mouse splenocytes were isolated from C57/BL6 mouse spleens by macerating and straining over a 70 μm cell strainer. Isolated PBMCs or splenocytes were then frozen done using frozen medium. On the day of the assay, PBMCs or splenocytes were thawed and cultured in PBMC culture medium (RPMI supplemented with 10% heat-inactivated fetal bovine serum from Hyclone, 1% Penicillin/Streptomycin and 2 mmol/L-glutamax). 300k of PBMC or splenocytes in 50 μL of culture medium were seeded in 96-well cell culture plates. 50 μL of the test articles (formulated at 2× of starting concentration, 1:4 serial dilution) were then added into the well. The cell mixtures were co-cultured in the presence of test articles and 10 pg/mL LPS-RS for 48 hr and collected by Accutase. […] Cells were washed, fixed with 2% PFA overnight, and read on the Attune NxT cytometer (Thermo Fisher). […]

[3] = test system: cyno PBMCs; experiment: Compound-induced cytokine release (ELISA); assay type: cell-based, cynomolgus monkey; conditions: IL-6 and MCP-1 (FIG. 5A-5B); 48 hr
Description: This example evaluates the ability of Compound 1 to induce cytokine release in human PBMCs, cyno PBMCs and mouse splenocytes. Compound A and resiquimod, above, were used as controls in the assays.
Human and cyno PBMCs, mouse splenocytes were isolated as described in previous example. On the day of the assay, 300k of PBMC or splenocytes in 50 μL of culture medium were seeded in 96-well cell culture plates. 50 μL of the test articles (formulated at 2× of starting concentration) were then added into the well. The cell mixtures were co-cultured in the presence of test articles and 10 μg/mL LPS-RS for 24 hrs (human PBMCs) or 48 hr (cyno PBMCs and mouse splenocytes). Released cytokines in cell culture medium were measured by ELISA.

[4] = test system: human and mouse TLRs; experiment: HEK293 SEAP reporter panel of human and mouse TLRs, specificity; assay type: cell-based; conditions: 16 hrs
Excerpt: In this example, the activity of the Compound 1 to stimulate different human and mouse TLR pathways was investigated on HEK293 cells transfected with inducible SEAP (secreted embryonic alkaline phosphatase) reporter genes and also expressing different human TLRs (TLR2, TLR3, TLR4, TLR5, TLR7, TLR8, TLRS) or mouse TLRs (TLR2, TLR3, TLR4, TLR5, TLR7, TLR8, TLR13). Compound A
HEK293 reporter cell lines were purchased from Invivogen and cell lines were maintained in manufacture recommended culture medium with required supplemental antibiotics. On the day of assay, the cells were harvested with Accutase and counted by the Vi-CELL Cell Viability Analyzers. Cells were re-suspended in HEK blue detection medium and a total of 10000 cells were seeded in each well of a 384-well flat bottom plate. […] Assay plates were cultured at 37° C. in a CO2 incubator for 16 hrs. HEK-Blue™ Detection medium changes to a purple/blue color in the presence of secreted SEAP, which can be detected by spectrophotometry at 620-655 nm. Data was fitted with non-linear regression analysis, using a log(inhibitor) vs. response-variable slope, 3-parameter fit with GraphPad Prism.

SMILES: CCCCn1nc2c(N)nc3ccccc3c2c1Cc1ccc(CN)cc1 [Compound 1, 1-(4-(aminomethyl)benzyl)-2-butyl-2H-pyrazolo[3,4-c]quinolin-4-amine]
- cytotoxicity on KB cells [1]: did not show any cytotoxicity
- activation of immune cells in human PBMCs [2]: very potent in activating
- cytokine release from cyno PBMCs [3]: stimulated strong
- specificity among human and mouse TLRs [4]: very specific to human and mouse TLR7 and human TLR8
